Values of other authors, collected in article PMC8146568, “Thermococcus bergensis sp. nov., a Novel Hyperthermophilic Starch-Degrading Archaeon” (Biology, 2021).
Like-named read-outs stand apart in the source and are kept apart here.

Test system: T1, glyceraldehyde-3-phosphate ferredoxin oxidoreductase (GAPOR)
T1 construct: gene gor; native, purified from starch-grown culture of "strain 7324" (DSM 8774 mixed culture, formerly attributed to Archaeoglobus fulgidus); 66 kDa monomer; N-terminus MRFSVLKINLNEKKVX(X)EVFEREXV
Test: benzyl viologen-dependent GAP oxidation, steady-state kinetics
Type: biochemical, Thermococcus bergensis
Settings: pH 7.8, 50 °C, read-out: apparent Km

| Structure (SMILES) | Km (benzyl viologen as electron acceptor) | Km (artificial electron acceptor, GAP as co-substrate) |
| --- | --- | --- |
| O=C[C@H](O)COP(=O)(O)O [GAP, glyceraldehyde-3-phosphate] | 5 µM | – |
| c1ccc(C[n+]2ccc(-c3cc[n+](Cc4ccccc4)cc3)cc2)cc1 [BV, benzyl viologen] | – | 4000 µM |
